Test: Human HepG2 cell viability assay in 384 well format
Format: toxicity, cell-based
Design: dose 125 nL, time 70.5 hour; cytotoxicity at 70.5 h: concentration not given beside the values
Conditions: HepG2 cells, read-out: Inhibition

Structure (SMILES): CC(C)Oc1cccc(C(=O)Nc2nncs2)c1
- cytotoxicity at 70.5 h: -11.6%

Structure (SMILES): O=c1cc(-c2ccncc2)nc(-c2ccc(CN3CC[C@@H](O)C3)cc2)[nH]1
- cytotoxicity at 70.5 h: -11.3%

Structure (SMILES): COc1cccc(OCc2cc(C(=O)NC[C@@H]3CCCN3)n[nH]2)c1
- cytotoxicity at 70.5 h: 0.523%

Structure (SMILES): Cc1ccc(CN2CCN(C3CSCCSC3)CC2CCO)o1 (stereo unspecified)
- cytotoxicity at 70.5 h: -6.76%

Structure (SMILES): c1cc(N2CCC(c3nnc(Cn4ccnc4)n3C3CC3)CC2)ccn1
- cytotoxicity at 70.5 h: -6.52%

Structure (SMILES): CCC1=NOC(CNCc2cnc(-c3ccccc3C)s2)C1 (stereo unspecified)
- cytotoxicity at 70.5 h: -6.62%

Structure (SMILES): CC(Cn1ccnc1)NCc1nncn1C1CCCCC1 (stereo unspecified)
- cytotoxicity at 70.5 h: -1.11%

Structure (SMILES): Cc1ccc(CN2CC3(CCN(C(=O)C4CC4)CC3)CC2C(=O)O)o1 (stereo unspecified)
- cytotoxicity at 70.5 h: -2.54%

Structure (SMILES): CN(C)c1nc2c(c(=O)[nH]1)CCN(C(=O)C1CCCO1)C2 (stereo unspecified)
- cytotoxicity at 70.5 h: -8.42%

Structure (SMILES): O=C(Nc1ccc(-n2cccn2)cc1)N1C[C@H](O)[C@@H](N2CCOCC2)C1
- cytotoxicity at 70.5 h: -13.4%

Structure (SMILES): CC(=O)Nc1ccc(CN2CCc3[nH]cnc3C2c2ccc(C)o2)cc1 (stereo unspecified)
- cytotoxicity at 70.5 h: -6.39%

Structure (SMILES): CCN1CCC2(CC1)c1nc[nH]c1CCN2S(C)(=O)=O
- cytotoxicity at 70.5 h: -6.08%

Structure (SMILES): COCCN(C)CCN1CC2(CCN(C3CCCCC3)CC2)OC1=O
- cytotoxicity at 70.5 h: -4.75%

Structure (SMILES): CNCc1n[nH]c(=O)n1CC1CCCCC1
- cytotoxicity at 70.5 h: -5.1%

Structure (SMILES): Cc1nc(CN(C)Cc2cn[nH]c2-c2ccc(F)cc2)c[nH]1
- cytotoxicity at 70.5 h: 5.97%

Structure (SMILES): CC(NCc1cn(CCC(N)=O)c2ccccc12)c1nncn1C (stereo unspecified)
- cytotoxicity at 70.5 h: 23.7%

Structure (SMILES): CCNc1ncc(C(=O)NC2CCOCC2)cn1
- cytotoxicity at 70.5 h: -5.98%

Structure (SMILES): Cc1nc(C)c(-c2ccn(CC(=O)Nc3cnn(C)n3)n2)s1
- cytotoxicity at 70.5 h: 8.07%

Structure (SMILES): CSc1ccccc1C(=O)N1C[C@H]2CC[C@@H]1CN(C(=O)N(C)C)C2
- cytotoxicity at 70.5 h: -8.08%

Structure (SMILES): CC(C)[C@]1(O)CN(C(=O)CNC(N)=O)C[C@H]1C
- cytotoxicity at 70.5 h: -0.763%

Structure (SMILES): CC(=O)NCC(=O)N(CCN1CCOCC1)Cc1ccco1
- cytotoxicity at 70.5 h: 3.23%

Structure (SMILES): Cc1noc(C)c1C(=O)N(Cc1ccsc1)CC1CCCO1 (stereo unspecified)
- cytotoxicity at 70.5 h: 3.1%

Structure (SMILES): Cc1nc2c(c(NCc3cnc4c(c3)CCC4)n1)CNC2
- cytotoxicity at 70.5 h: -6.06%

Structure (SMILES): CCN1CC2(CCC1=O)CCN(C(=O)C(O)c1cccc(Cl)c1)CC2 (stereo unspecified)
- cytotoxicity at 70.5 h: -7.18%

Structure (SMILES): CN1Cc2nnc(C3CCOCC3)n2C(Cc2c[nH]cn2)C1 (stereo unspecified)
- cytotoxicity at 70.5 h: -1.52%

Structure (SMILES): OC1CCN(CCCNc2ncccn2)CC1
- cytotoxicity at 70.5 h: 3.78%

Structure (SMILES): O=C(O)C1c2nc[nH]c2CCN1Cc1ccc(-c2ccccc2)s1 (stereo unspecified)
- cytotoxicity at 70.5 h: -4.04%

Structure (SMILES): CN(Cc1ccc2nonc2c1)C(=O)c1ccc(C2CCCO2)s1 (stereo unspecified)
- cytotoxicity at 70.5 h: -4.66%

Structure (SMILES): COCc1nc(CNC2CSCCSC2)no1
- cytotoxicity at 70.5 h: -11.5%

Structure (SMILES): CCn1ncnc1CN(CCOC)Cc1ccc(C)cc1
- cytotoxicity at 70.5 h: -4.05%

Structure (SMILES): Cn1nccc1C(=O)N1CCCN(CCCc2ccccc2)CC1
- cytotoxicity at 70.5 h: -0.514%

Structure (SMILES): CCc1ccc(C(=O)N2CCC(O)(CN3CCOCC3)C(C)(C)C2)[nH]1 (stereo unspecified)
- cytotoxicity at 70.5 h: -9.84%

Structure (SMILES): CNCCNc1nccc(-c2cn(C)nc2C)n1
- cytotoxicity at 70.5 h: -5.66%

Structure (SMILES): Cc1cccc(CNC(=O)NCC2CCN(Cc3ncc[nH]3)C2)c1 (stereo unspecified)
- cytotoxicity at 70.5 h: -16.7%

Structure (SMILES): Cc1nnsc1CN1C[C@H]2CC[C@@H]1CN(Cc1ccccc1)C2
- cytotoxicity at 70.5 h: -1.08%

Structure (SMILES): CSCc1noc(Cn2ncn3cccc3c2=O)n1
- cytotoxicity at 70.5 h: -3.25%

Structure (SMILES): O=S(=O)(Cc1ccccc1CN1CCOCC(O)C1)c1ccccc1 (stereo unspecified)
- cytotoxicity at 70.5 h: 14.8%

Structure (SMILES): Cc1ccc(OC2(C(=O)N(C)Cc3ccoc3)CCNCC2)cc1
- cytotoxicity at 70.5 h: -16.8%

Structure (SMILES): CCCc1cnc(C)nc1N1CCC2(CCCO2)CC1
- cytotoxicity at 70.5 h: -1.28%

Structure (SMILES): CCc1nc(N2CCCC(CCCOC)C2)c2cnn(C)c2n1 (stereo unspecified)
- cytotoxicity at 70.5 h: -5.41%

Structure (SMILES): COCc1nc(Cn2ncn3cccc3c2=O)no1
- cytotoxicity at 70.5 h: -0.912%

Structure (SMILES): CCN1CC(C(=O)N2CCN(CCn3cccc3)CC2)CCC1=O (stereo unspecified)
- cytotoxicity at 70.5 h: 1.29%

Structure (SMILES): Fc1cccc(C2(CNC3CCSC3)CCOCC2)c1 (stereo unspecified)
- cytotoxicity at 70.5 h: 13.3%

Structure (SMILES): CCc1nc(C)c(C2CC(=O)Nc3c2c(-c2ccccn2)nn3C)[nH]1 (stereo unspecified)
- cytotoxicity at 70.5 h: 1.83%

Structure (SMILES): COc1cccc2c1OCCCN(c1nc(N)nc3c1CCNC3)C2
- cytotoxicity at 70.5 h: 12.6%

Structure (SMILES): CCOCC(=O)N1CCC(C2CCN(Cc3ccc(Cl)cc3)C2)CC1 (stereo unspecified)
- cytotoxicity at 70.5 h: -2.4%

Structure (SMILES): COc1nc(C)c(C(=O)N2CCN(c3ncccc3C)CC2)s1
- cytotoxicity at 70.5 h: -4.24%

Structure (SMILES): CN(Cc1ccc2c(c1)OCO2)C(=O)c1ccc(C2CCCNC2)cc1 (stereo unspecified)
- cytotoxicity at 70.5 h: -6.12%

Structure (SMILES): NC(=O)CN1CCCC(C(=O)N2CCC(O)(Cc3ccccc3)CC2)C1 (stereo unspecified)
- cytotoxicity at 70.5 h: -9.61%

Structure (SMILES): CCc1ccc2nc(C)cc(C(=O)NC3CCCCNC3=O)c2c1 (stereo unspecified)
- cytotoxicity at 70.5 h: 1.7%

Structure (SMILES): CC(=O)N1CCCC(C(=O)NCCc2csc(-c3ccncc3)n2)C1 (stereo unspecified)
- cytotoxicity at 70.5 h: -5.2%

Structure (SMILES): O=C(c1scc2c1OCCO2)N1CCC(Cc2cccc(CO)c2)C1 (stereo unspecified)
- cytotoxicity at 70.5 h: -3.37%

Structure (SMILES): Cc1nc[nH]c1CN1CCCC(CNC(=O)c2ccncn2)C1 (stereo unspecified)
- cytotoxicity at 70.5 h: -7.41%

Structure (SMILES): Cc1nc(C)c(CC(=O)N2C[C@@H]3CC[C@H](C2)N(CC2CC2)C3)s1
- cytotoxicity at 70.5 h: -3.8%

Structure (SMILES): CCCS(=O)(=O)NCc1cccnc1Oc1ccc(C)nc1
- cytotoxicity at 70.5 h: -0.632%

Structure (SMILES): O=C(O)C1(Cc2ccc(F)cc2F)CCCN(Cc2ccccn2)C1 (stereo unspecified)
- cytotoxicity at 70.5 h: -5.82%

Source: ChEMBL document CHEMBL3507680, “University of Dundee, Gates Library screen for HepG2 cell viability”
